Data as given in patent publication US20170298056A1, “SMALL MOLECULE INHIBITORS OF HIV-1 ENTRY AND METHODS OF USE THEREOF” (Dana-Farber Cancer Institute, Inc., priority 2014, published 2017).

Legend:
HIV-1YU2 = assay: Viral infection assay, YU2 Env (wild type and mutants); assay type: cell-based; details: for Fold change: mutant/wild-type IC50
From the text: HIV-1 Env mutants. Mutations were introduced into the plasmid expressing the fulllength HIV-1YU2 or HIV-1JR-FL Envs using the QuikChange II site-directed mutagenesis protocol or the QuikChange multi site-directed mutagenesis kit (Stratagene). The presence of the desired mutations was confirmed by DNA sequencing. All HIV-1 Env residues are numbered based on alignment with the HXBc2 prototypic sequence, according to current convention.
(§1) Production of recombinant HIV-1 expressing luciferase. […] After 48 hours, the supernatant was collected, buffered with 50 mM Hepes pH 7.4 (final concentration) and centrifuged for 5 minutes at 750×g and 4° C. The virus-containing supernatant was used directly or frozen at −80° C.
(§2) Viral infection assay. Each test compound was serially diluted in DMSO in a 96-well B&W isoplate (PerkinElmer, Boston, Mass.) using an HP D300 Digital Dispenser, to a final volume of 450 nl. DMSO was used as a control. Viruses pseudotyped with a specific Env were added to each well and incubated briefly at room temperature. Cf2Th-CD4/CCR5 cells were detached with StemPro Accutase Cell Dissociation Reagent (Invitrogen, cat #A11105-01), washed once, and 5000 cells were added to each well. […] Following incubation, the medium was aspirated and cells were lysed with 30 μl of Passive Lysis Buffer (Promega, cat #E1941). The activity of the firefly luciferase, which was used as a reporter protein in the system, was measured with a Centro LB 960 luminometer (Berthold Technologies, Oak Ridge, Tenn.). One hundred microliters of assay buffer (15 mM MgSO4, 15 mM KH2PO4/K2HPO4 pH 7.8, 1 mM ATP and 1 mM DTT) was injected to each well, followed by a 50 μl injection of 1 mM Dluciferin potassium salt (BD Pharmingen, San Jose, Calif.); luminescence was measured for 2 sec. Infection of PBMC was done as above, but 20,000-40,000 cells/well and viruses concentrated by ultracentrifugation were used. After four hours of incubation with viruses, the cells were centrifuged at 200×g for 6 minutes at 4° C., resuspended in 100 μl RPMI-PBMC medium and incubated at 37° C. for an additional 36-40 hours (total 40-44 hours). Supernatant was removed after centrifugation at 400×g for 5 minutes and cells were processed to detect luciferase activity, as described above.

HIV-2OC1 = assay: Viral infection assay, HIV-2 Env; assay type: cell-based; details: virus with HIV-2OC1 Env
Protocol: as §1
as §2, with “Infection of PBMC was done as above, but 20,000-40,000 cells/well and viruses concentrated by ultracentrifugation were used. After four hours of incubation with viruses, the cells were centrifuged at 200×g for 6 minutes at 4° C., resuspended in 100 μl RPMI-PBMC medium and incubated at 37° C. for an additional 36-40 hours (total 40-44 hours). Supernatant was removed after centrifugation at 400×g for 5 minutes and cells were processed to detect luciferase activity, as described above.” left out

[1] = system: cell-surface HIV-1JR-FL WTKA Env; assay: Binding of 17b, 19b, 2G12, PGT121 antibodies to cell-surface Env (flow cytometry)
Protocol: Flow cytometry. […] After 48-72 hours, cells were detached with 5 mM EDTA/PBS and between 0.5-1 million cells were briefly incubated with various concentrations of 18A and then with or without the indicated concentrations of sCD4. C34-Ig (at a final concentration of 20 μg/ml) or a specified antibody (at final concentration of 1 μg/ml) was added to the cells. […] Cells were washed twice and analyzed with a BD FACSCanto II flow cytometer (BD Biosciences). For analysis of resistant mutants (FIG. 5e-g), the measurements were normalized for the level of sCD4 binding of each mutant, and the response of each mutant was further normalized to that of the wild-type HIV-1JR-FL E168K+N188AΔCT Env (herein designated WTKA). […] The sCD4 IC50/sCD4 binding ratio (FIGS. 4c and e) was calculated as follows. Binding of sCD4 to different envelope mutants was measured by flow cytometry and normalized first to 2G12 binding to account for potentially different Env expression levels, and then to sCD4 binding to the wild-type HIV-1JR-FL Env. The IC50 of sCD4 for inhibition of virus infection by each mutant Env was divided by the normalized sCD4 binding to Env-expressing cells to calculate the sCD4 IC50/sCD4 binding value.

O=C(N/N=C/c1ccc(O)cc1)Nc1cccc2nsnc12 [Compound 18A]
IC50 (HIV-1YU2; YU2 Env D113A): 6 ± 1.4 µM
Fold change (HIV-1YU2; YU2 Env D113A): 0.7
IC50 (HIV-1YU2; YU2 Env D589L): 12.1 ± 1.5 µM
Fold change (HIV-1YU2; YU2 Env D589L): 1.4
IC50 (HIV-1YU2; YU2 Env E370A): 2.3 ± 0.8 µM
Fold change (HIV-1YU2; YU2 Env E370A): 0.3
IC50 (HIV-1YU2; YU2 Env E429K): 9 ± 1.4 µM
Fold change (HIV-1YU2; YU2 Env E429K): 1.1
IC50 (HIV-1YU2; YU2 Env H66A): 8 ± 0.9 µM
Fold change (HIV-1YU2; YU2 Env H66A): 1
IC50 (HIV-1YU2; YU2 Env H66N): 4.6 ± 0.5 µM
Fold change (HIV-1YU2; YU2 Env H66N): 0.5
IC50 (HIV-1YU2; YU2 Env I108A): 6.1 ± 0.7 µM
Fold change (HIV-1YU2; YU2 Env I108A): 0.7
IC50 (HIV-1YU2; YU2 Env I109W): 2.9 ± 0.4 µM
Fold change (HIV-1YU2; YU2 Env I109W): 0.3
IC50 (HIV-1YU2; YU2 Env I285A): 6.3 ± 1.5 µM
Fold change (HIV-1YU2; YU2 Env I285A): 0.7
IC50 (HIV-1YU2; YU2 Env I309A): 4.2 ± 1.3 µM
Fold change (HIV-1YU2; YU2 Env I309A): 0.5
IC50 (HIV-1YU2; YU2 Env I371A): 6.5 ± 0.9 µM
Fold change (HIV-1YU2; YU2 Env I371A): 0.8
IC50 (HIV-1YU2; YU2 Env I420C): 2.1 ± 0.4 µM
Fold change (HIV-1YU2; YU2 Env I420C): 0.2
IC50 (HIV-1YU2; YU2 Env I420S): 4.8 ± 0.8 µM
Fold change (HIV-1YU2; YU2 Env I420S): 0.6
IC50 (HIV-1YU2; YU2 Env I423R): 2.4 ± 0.4 µM
Fold change (HIV-1YU2; YU2 Env I423R): 0.3
IC50 (HIV-1YU2; YU2 Env K117W): 6.5 ± 1.1 µM
Fold change (HIV-1YU2; YU2 Env K117W): 0.8
IC50 (HIV-1YU2; YU2 Env L111A): 10.4 ± 1.6 µM
Fold change (HIV-1YU2; YU2 Env L111A): 1.2
IC50 (HIV-1YU2; YU2 Env L260A): 3.4 ± 1.5 µM
Fold change (HIV-1YU2; YU2 Env L260A): 0.4
IC50 (HIV-1YU2; YU2 Env L261A): 4.9 ± 1 µM
Fold change (HIV-1YU2; YU2 Env L261A): 0.6
IC50 (HIV-1YU2; YU2 Env L317A): 10.2 ± 1.4 µM
Fold change (HIV-1YU2; YU2 Env L317A): 1.2
IC50 (HIV-1YU2; YU2 Env M475A (associated with resistance to BMS-806)): 10.2 ± 2.6 µM
Fold change (HIV-1YU2; YU2 Env M475A): 1.2
IC50 (HIV-1YU2; YU2 Env N377A): 3.3 ± 0.6 µM
Fold change (HIV-1YU2; YU2 Env N377A): 0.4
IC50 (HIV-1YU2; YU2 Env P212A): 10.2 ± 1.5 µM
Fold change (HIV-1YU2; YU2 Env P212A): 1.2
IC50 (HIV-1YU2; YU2 Env Q114N): 14.8 ± 2.1 µM
Fold change (HIV-1YU2; YU2 Env Q114N): 1.7
IC50 (HIV-1YU2; YU2 Env S110A): 7.3 ± 1.6 µM
Fold change (HIV-1YU2; YU2 Env S110A): 0.9
IC50 (HIV-1YU2; YU2 Env S110N): 5.9 ± 1.8 µM
Fold change (HIV-1YU2; YU2 Env S110N): 0.7
IC50 (HIV-1YU2; YU2 Env S375A): 10 ± 1.3 µM
Fold change (HIV-1YU2; YU2 Env S375A): 1.2
IC50 (HIV-1YU2; YU2 Env S375W (associated with resistance to BMS-806)): 14.6 ± 2.8 µM
Fold change (HIV-1YU2; YU2 Env S375W): 1.7
IC50 (HIV-1YU2; YU2 Env T71A): 7.1 ± 1.4 µM
Fold change (HIV-1YU2; YU2 Env T71A): 0.8
IC50 (HIV-1YU2; YU2 Env T257A): 13.2 ± 1.1 µM
Fold change (HIV-1YU2; YU2 Env T257A): 1.5
IC50 (HIV-1YU2; YU2 Env T257S): 6.9 ± 0.8 µM
Fold change (HIV-1YU2; YU2 Env T257S): 0.8
IC50 (HIV-1YU2; YU2 Env V255A): 14 ± 1.2 µM
Fold change (HIV-1YU2; YU2 Env V255A): 1.6
IC50 (HIV-1YU2; YU2 Env V255G): 7.9 ± 1.7 µM
Fold change (HIV-1YU2; YU2 Env V255G): 0.9
IC50 (HIV-1YU2; YU2 Env V255I): 5.4 ± 1.3 µM
Fold change (HIV-1YU2; YU2 Env V255I): 0.6
IC50 (HIV-1YU2; YU2 Env V255W): 3.6 ± 1.3 µM
Fold change (HIV-1YU2; YU2 Env V255W): 0.4
IC50 (HIV-1YU2; YU2 Env V430A): 5.9 ± 0.6 µM
Fold change (HIV-1YU2; YU2 Env V430A): 0.7
IC50 (HIV-1YU2; YU2 Env V430S): 2.9 ± 0.3 µM
Fold change (HIV-1YU2; YU2 Env V430S): 0.3
IC50 (HIV-1YU2; YU2 Env W69L): 3.5 ± 0.5 µM
Fold change (HIV-1YU2; YU2 Env W69L + S375W): 1.7
Fold change (HIV-1YU2; YU2 Env W69L): 0.4
IC50 (HIV-1YU2; YU2 Env W479A): 1.3 ± 0.2 µM
Fold change (HIV-1YU2; YU2 Env W479A): 0.2
IC50 (HIV-1YU2; YU2 Env W596M): 9.4 ± 1.4 µM
Fold change (HIV-1YU2; YU2 Env W596M): 1.1
IC50 (HIV-1YU2; YU2 Env double mutant W69L + S375W): 15 ± 2.5 µM
IC50 (HIV-1YU2; YU2 Env wild type): 8.6 ± 1.4 µM
Fold change (HIV-1YU2; YU2 Env wild type): 1
inhibition of infection (HIV-2OC1): significantly less potent
binding of 19b and 2G12, sCD4-induced decrease of PGT121 binding [1]: No significant effect
17b binding to cell surface-expressed Env trimer ([1]; in the presence of 18A, no sCD4): reduction in 17b binding
